Where a name gives a salt, the structure may show the parent alone. Peptide text beside a SMILES is read from it.
Assays:
[1] = test system: mouse fibrosarcoma Meth A cells; assay: Antitumor activity, Meth A tumor-bearing mice, single administration; format: in vivo; conditions: for antitumor activity (in words) / effective dose-range: single administration, compared to the drug compound, per se; for Inhibition rate (%): Table 3
Description: Meth A tumor-bearing mice (6 mice per group) were prepared according to a similar manner to that of Example 11 and the antitumor activity was compared to that obtained by single administration of the drug complexes of Examples 8 and 9 once on day 7. As a result, the degree of the antitumor activity was as follows: (Polysaccharide derivative)-Gly-Gly-Phe-Gly-NH—A′>(Polysaccharide derivative)-Gly-Gly-Gly-Phe-NH—A′>the drug compound, per se.
Meth A tumor-bearing mice (6 mice per group) were prepared according to a similar manner to that of Example 11, and the antitumor activity of the drug complex of Example 41 was examined in the cases of single administration in a similar manner to that of Example 12, and its antitumor activity was compared to that of the drug compound, per se. […]

[2] = test system: mouse fibrosarcoma Meth A cells; assay: as above; format: in vivo
[3] = test system: mouse fibrosarcoma Meth A cells; assay: Antitumor activity, Meth A tumor-bearing mice, injection every 4 days 4 times; conditions: for Inhibition rate (%): tail vein every 4 days from day 7, tumor weight day 21; for antitumor activity (in words): compared to the drug compound, per se
Description: Meth A tumor-bearing mice were prepared (7 mice per group) by subcutaneously transplanting 1×10^6 mouse fibrosarcoma Meth A cells into the right inguinal regions of BALB/c male mice (7-week old). On day 7, the drug complex of Example 9 dissolved in distilled water for injection was injected in the tail vein of the Meth A tumor-bearing mice every 4 days 4 times. On day 21 after the transplantation, tumor masses were excised and weighed to calculate the inhibition rate of tumor growth according to the following equation: inhibition rate of tumor growth (%)=[1−(average tumor weight of the group administered with the test sample/average tumor weight of control group)]×100.

SC-6 human gastric tumor = assay: Antitumor activity, SC-6 tumor-bearing nude mice; format: in vivo, mouse; conditions: for Inhibition rate (%) / Numbers of died mice/mice used: single intravenous administration on day 27, nude mice
Description: (§1) SC-6 tumor-bearing nude mice (5 mice per group) were prepared by subcutaneously transplanting a piece of SC-6 human gastric tumor block into the right inguinal regions of nude mice (BALB/c-nu/nu, male).

Human lung cancer QG-90 = assay: Antitumor activity, human lung cancer QG-90-bearing nude mice; format: in vivo, mouse; conditions: for Inhibition rate (%) / Numbers of died mice/mice used: single intravenous administration on day 16, nude mice
Description: as §1
Human lung cancer QG-90-bearing nude mice (5 mice per group) were prepared according to a similar manner to that of Example 57.

[4] = Pharmacokinetics in Meth A tumor-bearing mice; format: in vivo, mouse; conditions: single administration, 10 mg/kg calculated as the drug compound; FIG. 24
[5] = Example 60, 40 mg/kg calculated based on the drug compound, single administration
[6] = Example 60, 80 mg/kg calculated based on the drug compound, single administration
[7] = Example 60, 100 mg/kg calculated based on the drug compound, single administration
[8] = Example 60, 20 mg/kg calculated based on the drug compound, single administration, 20 mg/kg
[9] = 5 mg/kg calculated based on the drug compound, single administration on day 7
[10] = 2 mg/kg calculated based on the drug compound
[11] = 8 mg/kg calculated based on the drug compound
[12] = single intravenous administration, compared to the drug compound, per se
[13] = 1.75 mg/kg calculated based on the drug compound
[14] = 7 mg/kg calculated based on the drug compound

α-methylcarboxymethyldextran polyalcohol-Gly-Gly-Gly-Phe-NH—A′ (A—NH2=DX-8951) [Example 47]
antitumor activity (in words) [1]: high
effective dose-range [1]: broader
Inhibition rate (%) ([2]; Example 60, 20 mg/kg calculated based on the drug compound, single administration): 75%
Inhibition rate (%) [2, 5]: 97%
Inhibition rate (%) [2, 6]: 94%
Inhibition rate (%) [2, 7]: 96%

carboxymethyldextran polyalcohol-Gly-Gly-Gly-Phe-NH—A′ (A—NH2=DX-8951) [Example 29]
antitumor activity (in words) [1]: high
effective dose-range [1]: broader
Inhibition rate (%) ([2]; Example 60, 5 mg/kg calculated based on the drug compound, single administration): 79%
Inhibition rate (%) ([2]; Example 60, 10 mg/kg calculated based on the drug compound, single administration): 89%
Inhibition rate (%) [2, 8]: 99%
Inhibition rate (%) ([2]; Example 60, 30 mg/kg calculated based on the drug compound, single administration): 99%

carboxymethyldextran polyalcohol-Gly-Gly-Gly-Phe-NH—A′ (A—NH2=DX-8951) [Example 8]
Inhibition rate (%) [1, 9]: 76%
Inhibition rate (%) ([1]; 10 mg/kg calculated based on the drug compound, single administration on day 7): 85%

carboxymethyldextran polyalcohol-Gly-Gly-Phe-Gly-NH—A′ (A—NH2=DX-8951) [Example 9]
Inhibition rate (%) ([3]; dose 0.35 mg/kg × 4 calculated based on the drug compound): 41%
Inhibition rate (%) ([3]; dose 0.7 mg/kg × 4 calculated based on the drug compound): 59%
Inhibition rate (%) ([3]; dose 1.4 mg/kg × 4 calculated based on the drug compound): 94%
toxicity (weight loss) ([3]; every 4 days 4 times): no toxicity
antitumor activity (in words) ([3]; every 4 days 4 times): remarkably enhanced
Inhibition rate (%) [1, 9]: 98%
Inhibition rate (%) ([2]; Table 3, 2.5 mg/kg calculated based on the drug compound, single administration on day 7): 87%

carboxymethyldextran polyalcohol-Gly-Gly-Gly-Phe-NH—A′ (A—NH2=DX-8951) [Example 46]
antitumor activity (in words) [1]: high
effective dose-range [1]: broader
Inhibition rate (%) [2, 8]: 75%
Inhibition rate (%) [2, 5]: 82%
Inhibition rate (%) [2, 6]: 92%
Inhibition rate (%) [2, 7]: 94%

CC[C@@]1(O)C(=O)OCc2c1cc1n(c2=O)Cc2c-1nc1cc(F)c(C)c3c1c2[C@@H](NC(=O)CNC(=O)[C@H](Cc1ccccc1)NC(=O)CNC(=O)CN)CC3 [3′-N-(Gly-Gly-Phe-Gly)-NH—A (A—NH2=DX-8951) trifluoroacetic acid salt] (HELM PEPTIDE1{G.G.F.G.[CC[C@@]1(O)C(=O)OCc2c1cc1n(c2=O)Cc2c-1nc1cc(F)c(C)c3c1c2[C@@H](N[*:1])CC3]}$$$$V2.0)
antitumor activity (in words) ([3]; every 4 days 4 times): not effective

carboxymethyldextran polyalcohol-Gly-Gly-Phe-Gly-DXR [Example 44]
antitumor activity (in words) [1]: remarkably enhanced
effective dose-range [1]: broader
Inhibition rate (%) ([2]; Example 61, 5 mg/kg calculated based on the drug compound, single administration): 76%
Inhibition rate (%) ([2]; Example 61, 10 mg/kg calculated based on the drug compound, single administration): 87%
Inhibition rate (%) ([2]; Example 61, 20 mg/kg calculated based on the drug compound, single administration): 96%
Inhibition rate (%) ([2]; Example 61, 40 mg/kg calculated based on the drug compound, single administration): 96%

CC[C@@]1(O)C(=O)OCc2c1cc1n(c2=O)Cc2c-1nc1cc(F)c(C)c3c1c2[C@@H](N)CC3 [DX-8951, (1S,9S)-1-amino-9-ethyl-5-fluoro-2,3-dihydro-9-hydroxy-4-methyl-1H,12H-benzo[de]pyrano[3′,4′:6,7]indolizino[1,2-b]quinoline-10,13(9H,15H)-dione, reference compound]
Inhibition rate (%) ([1]; 20 mg/kg single administration on day 7, drug compound = DX-8951): 59%
Inhibition rate (%) ([1]; 60 mg/kg single administration on day 7, drug compound = DX-8951): 77%

carboxymethyldextran polyalcohol-Gly-Gly-Phe-Gly-NH—A′ (A—NH2=DW-8089) [Example 41]
antitumor activity (in words) [1]: remarkably enhanced
effective dose-range [1]: broader
Inhibition rate (%) ([2]; Example 59, 3.125 mg/kg calculated based on the drug compound, single administration): 61%
Inhibition rate (%) ([2]; Example 59, 6.25 mg/kg calculated based on the drug compound, single administration): 81%
Inhibition rate (%) ([2]; Example 59, 12.5 mg/kg calculated based on the drug compound, single administration): 95%
Inhibition rate (%) ([2]; Example 59, 25 mg/kg calculated based on the drug compound, single administration): 99%

carboxymethyldextran polyalcohol-Gly-Gly-Phe-Gly-NH—A′ (A—NH2=DX-8951) [Example 15]
antitumor activity (in words) [1]: remarkably enhanced
effective dose-range [1]: broader
Inhibition rate (%) (SC-6 human gastric tumor; [10]): 71%
Numbers of died mice/mice used (SC-6 human gastric tumor; [10]): 0/5
Inhibition rate (%) (SC-6 human gastric tumor; [11]): 100%
Numbers of died mice/mice used (SC-6 human gastric tumor; [11]): 0/5
death due to toxicity (SC-6 human gastric tumor; single intravenous administration): no death
antitumor activity (in words) (SC-6 human gastric tumor; [12]): higher
Inhibition rate (%) (Human lung cancer QG-90; [13]): 97%
Numbers of died mice/mice used (Human lung cancer QG-90; [13]): 0/5
Inhibition rate (%) (Human lung cancer QG-90; [14]): 98%
Numbers of died mice/mice used (Human lung cancer QG-90; [14]): 0/5
antitumor activity (in words) (Human lung cancer QG-90; [12]): remarkably enhanced
effective dose-range (Human lung cancer QG-90; [12]): broader
distribution in tumor tissues [4]: high
retention of blood level [4]: extremely long
Inhibition rate (%) ([2]; Example 56, 1.25 mg/kg calculated based on the drug compound, single administration): 83%
Inhibition rate (%) ([2]; Example 56, 2.5 mg/kg calculated based on the drug compound, single administration): 95%
Inhibition rate (%) ([2]; Example 56, 5 mg/kg calculated based on the drug compound, single administration): 99%
Inhibition rate (%) ([2]; Example 56, 10 mg/kg calculated based on the drug compound, single administration): 100%

From patent US6838450B2, “Drug complex” (Daiichi Pharmaceutical Co., LTD, priority 1996, dated 2005)
